# Source: ChEMBL document CHEMBL1156471, “Targeting host cell furin proprotein convertases as a therapeutic strategy against bacterial toxins and viral pathogens” (J Biol Chem, 2007)
# Calls of active or inactive are those of the source. The rule behind the calls is not given here. Non-standard residues stand in square brackets, D forms with d. Residues, ends and D or L forms follow the SMILES beside them. Nle = CCCC[C@H](N)C(=O)O; Ac5c = NC1(C(=O)O)CCCC1; βAla = NCCC(=O)O; Sar = CNCC(=O)O
# Legend:
# U-251 [1] = assay: Inhibition of proprotein convertase-mediated anthrax protective antigen-83 processing in human U251 cells at 20 uM by Western blot; type: cell-based; conditions: Bacillus anthracis
# Furin = Furin (Homo sapiens, UniProt P09958)
# [2] = biological target: Proprotein convertase subtilisin/kexin type 5 (Homo sapiens, UniProt Q92824)
# [3] = biological target: T1, Proprotein convertase subtilisin/kexin type 4 (Homo sapiens, UniProt Q6UW60)
# T1 sequence (Q6UW60 whole entry): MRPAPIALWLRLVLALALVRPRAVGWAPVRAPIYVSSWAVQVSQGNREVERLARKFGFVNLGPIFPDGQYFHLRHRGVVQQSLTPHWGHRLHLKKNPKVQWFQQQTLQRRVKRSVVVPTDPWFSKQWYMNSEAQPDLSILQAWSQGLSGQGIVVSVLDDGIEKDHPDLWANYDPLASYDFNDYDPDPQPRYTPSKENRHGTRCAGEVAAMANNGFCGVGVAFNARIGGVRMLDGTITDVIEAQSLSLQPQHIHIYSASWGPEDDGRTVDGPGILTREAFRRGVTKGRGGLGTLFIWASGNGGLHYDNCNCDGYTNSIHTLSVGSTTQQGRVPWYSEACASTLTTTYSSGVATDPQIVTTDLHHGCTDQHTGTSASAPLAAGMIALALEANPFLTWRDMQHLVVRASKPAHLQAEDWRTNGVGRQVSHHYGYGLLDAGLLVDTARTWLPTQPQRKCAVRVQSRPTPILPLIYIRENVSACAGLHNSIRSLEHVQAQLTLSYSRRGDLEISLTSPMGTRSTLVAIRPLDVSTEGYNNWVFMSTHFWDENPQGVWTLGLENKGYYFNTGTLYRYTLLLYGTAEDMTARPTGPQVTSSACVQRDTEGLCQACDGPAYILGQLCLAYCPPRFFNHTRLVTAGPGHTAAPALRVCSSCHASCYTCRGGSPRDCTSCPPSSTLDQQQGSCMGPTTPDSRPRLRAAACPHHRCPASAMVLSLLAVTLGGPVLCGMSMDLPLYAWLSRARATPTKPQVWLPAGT
# [4] = biological target: T2, Proprotein convertase subtilisin/kexin type 6 (Rattus norvegicus, UniProt Q63415)
# T2 sequence (Q63415 whole entry): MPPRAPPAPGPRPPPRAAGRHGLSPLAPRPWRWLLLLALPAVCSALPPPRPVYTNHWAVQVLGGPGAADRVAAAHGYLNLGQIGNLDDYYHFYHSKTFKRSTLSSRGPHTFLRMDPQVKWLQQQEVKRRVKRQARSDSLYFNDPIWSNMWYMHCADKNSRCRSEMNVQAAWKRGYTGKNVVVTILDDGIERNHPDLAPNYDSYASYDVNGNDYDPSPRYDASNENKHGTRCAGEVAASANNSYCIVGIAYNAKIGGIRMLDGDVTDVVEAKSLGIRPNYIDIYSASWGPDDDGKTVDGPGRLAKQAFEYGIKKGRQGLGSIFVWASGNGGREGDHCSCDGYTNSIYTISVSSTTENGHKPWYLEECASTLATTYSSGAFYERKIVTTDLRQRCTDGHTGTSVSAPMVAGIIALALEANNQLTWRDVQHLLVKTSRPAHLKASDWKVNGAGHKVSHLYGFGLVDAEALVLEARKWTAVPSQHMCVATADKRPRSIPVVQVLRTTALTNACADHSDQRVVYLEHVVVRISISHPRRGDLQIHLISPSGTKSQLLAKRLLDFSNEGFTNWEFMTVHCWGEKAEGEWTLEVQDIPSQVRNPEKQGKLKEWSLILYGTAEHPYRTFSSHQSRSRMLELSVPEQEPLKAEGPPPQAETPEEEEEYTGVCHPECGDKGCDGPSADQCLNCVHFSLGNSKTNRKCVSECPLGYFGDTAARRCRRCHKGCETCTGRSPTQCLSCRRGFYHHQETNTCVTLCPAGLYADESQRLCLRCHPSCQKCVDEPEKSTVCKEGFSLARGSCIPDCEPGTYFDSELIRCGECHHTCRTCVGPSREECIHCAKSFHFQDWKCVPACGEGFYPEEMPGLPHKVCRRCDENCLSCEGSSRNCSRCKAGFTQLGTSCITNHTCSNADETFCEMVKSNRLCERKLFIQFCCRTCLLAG
# [5] = biological target: T3, Proprotein convertase subtilisin/kexin type 7 (Homo sapiens, UniProt Q16549)
# T3 sequence (Q16549 whole entry): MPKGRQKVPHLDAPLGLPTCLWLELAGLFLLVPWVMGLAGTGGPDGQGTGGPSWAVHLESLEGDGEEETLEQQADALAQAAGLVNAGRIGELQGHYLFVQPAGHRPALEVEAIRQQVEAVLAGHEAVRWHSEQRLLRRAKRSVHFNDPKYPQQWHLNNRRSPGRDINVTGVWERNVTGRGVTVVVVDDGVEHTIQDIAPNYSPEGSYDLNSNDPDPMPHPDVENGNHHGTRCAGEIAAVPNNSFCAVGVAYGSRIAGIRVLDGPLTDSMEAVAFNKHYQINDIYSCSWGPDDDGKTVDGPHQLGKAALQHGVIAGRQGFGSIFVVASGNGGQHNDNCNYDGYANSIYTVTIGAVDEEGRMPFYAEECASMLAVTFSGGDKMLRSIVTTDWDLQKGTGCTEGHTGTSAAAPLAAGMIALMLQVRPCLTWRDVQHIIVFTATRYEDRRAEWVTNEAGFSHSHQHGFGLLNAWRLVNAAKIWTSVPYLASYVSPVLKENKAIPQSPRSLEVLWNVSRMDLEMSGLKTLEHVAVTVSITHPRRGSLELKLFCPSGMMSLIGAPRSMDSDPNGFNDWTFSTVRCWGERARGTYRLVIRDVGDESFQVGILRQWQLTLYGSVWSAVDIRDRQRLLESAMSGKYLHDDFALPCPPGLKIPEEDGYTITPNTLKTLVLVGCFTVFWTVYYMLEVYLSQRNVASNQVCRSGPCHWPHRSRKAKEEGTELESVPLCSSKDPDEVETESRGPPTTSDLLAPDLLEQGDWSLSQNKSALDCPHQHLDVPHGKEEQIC
# U-251 [6] = assay: Protection against anthrax PA63-lethal toxin complex-induced cytotoxicity in human U251 cells at 20 uM at 400 ng/ml by MTT test; type: cell-based
# Sequence of Proprotein convertase subtilisin/kexin type 5 (Q92824 whole entry): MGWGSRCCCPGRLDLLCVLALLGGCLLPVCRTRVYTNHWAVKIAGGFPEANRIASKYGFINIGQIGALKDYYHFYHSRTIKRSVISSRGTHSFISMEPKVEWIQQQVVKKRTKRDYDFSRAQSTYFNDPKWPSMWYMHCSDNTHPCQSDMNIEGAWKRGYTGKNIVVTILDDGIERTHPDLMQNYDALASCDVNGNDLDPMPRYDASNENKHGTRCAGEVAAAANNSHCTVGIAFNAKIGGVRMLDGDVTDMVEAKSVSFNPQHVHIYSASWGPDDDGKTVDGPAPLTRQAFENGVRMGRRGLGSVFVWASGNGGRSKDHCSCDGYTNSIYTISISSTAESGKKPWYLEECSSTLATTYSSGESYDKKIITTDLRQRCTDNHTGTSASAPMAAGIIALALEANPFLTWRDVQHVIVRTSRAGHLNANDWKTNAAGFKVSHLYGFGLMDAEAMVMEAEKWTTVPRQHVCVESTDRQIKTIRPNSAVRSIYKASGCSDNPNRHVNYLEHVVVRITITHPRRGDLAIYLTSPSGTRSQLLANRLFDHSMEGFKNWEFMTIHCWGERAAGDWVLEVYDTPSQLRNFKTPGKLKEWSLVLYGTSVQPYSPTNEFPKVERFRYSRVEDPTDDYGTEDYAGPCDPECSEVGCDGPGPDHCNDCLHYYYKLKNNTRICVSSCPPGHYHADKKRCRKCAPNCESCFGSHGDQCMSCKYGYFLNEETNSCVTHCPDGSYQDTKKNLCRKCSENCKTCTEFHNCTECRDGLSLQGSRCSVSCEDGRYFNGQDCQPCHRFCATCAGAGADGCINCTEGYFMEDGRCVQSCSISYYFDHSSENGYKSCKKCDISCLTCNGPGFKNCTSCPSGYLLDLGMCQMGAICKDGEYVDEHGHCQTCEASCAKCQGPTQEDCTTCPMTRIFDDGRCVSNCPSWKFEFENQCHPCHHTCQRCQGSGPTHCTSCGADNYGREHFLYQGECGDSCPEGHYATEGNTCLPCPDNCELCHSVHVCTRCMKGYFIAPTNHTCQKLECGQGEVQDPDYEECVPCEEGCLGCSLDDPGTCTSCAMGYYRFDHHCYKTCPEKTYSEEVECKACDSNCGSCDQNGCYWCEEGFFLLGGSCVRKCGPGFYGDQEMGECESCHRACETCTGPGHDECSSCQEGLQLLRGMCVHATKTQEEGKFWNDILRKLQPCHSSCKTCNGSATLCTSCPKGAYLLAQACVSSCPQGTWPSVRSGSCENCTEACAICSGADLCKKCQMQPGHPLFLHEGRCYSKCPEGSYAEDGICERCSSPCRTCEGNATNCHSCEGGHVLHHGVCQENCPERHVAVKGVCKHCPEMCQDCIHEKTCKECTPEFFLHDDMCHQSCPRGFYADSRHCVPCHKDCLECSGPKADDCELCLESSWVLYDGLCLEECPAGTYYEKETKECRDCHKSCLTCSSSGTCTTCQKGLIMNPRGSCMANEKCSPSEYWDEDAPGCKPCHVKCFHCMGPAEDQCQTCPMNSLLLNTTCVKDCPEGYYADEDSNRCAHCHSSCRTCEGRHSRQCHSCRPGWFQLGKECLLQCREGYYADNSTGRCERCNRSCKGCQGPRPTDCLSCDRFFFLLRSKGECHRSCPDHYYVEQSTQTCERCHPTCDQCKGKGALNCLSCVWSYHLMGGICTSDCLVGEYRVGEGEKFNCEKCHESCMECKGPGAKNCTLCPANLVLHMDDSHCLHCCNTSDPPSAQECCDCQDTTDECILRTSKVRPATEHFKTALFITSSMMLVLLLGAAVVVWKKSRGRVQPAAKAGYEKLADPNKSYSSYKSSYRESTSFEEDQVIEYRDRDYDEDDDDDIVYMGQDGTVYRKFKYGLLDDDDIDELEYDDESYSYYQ
# Sequence of Furin (P09958 whole entry): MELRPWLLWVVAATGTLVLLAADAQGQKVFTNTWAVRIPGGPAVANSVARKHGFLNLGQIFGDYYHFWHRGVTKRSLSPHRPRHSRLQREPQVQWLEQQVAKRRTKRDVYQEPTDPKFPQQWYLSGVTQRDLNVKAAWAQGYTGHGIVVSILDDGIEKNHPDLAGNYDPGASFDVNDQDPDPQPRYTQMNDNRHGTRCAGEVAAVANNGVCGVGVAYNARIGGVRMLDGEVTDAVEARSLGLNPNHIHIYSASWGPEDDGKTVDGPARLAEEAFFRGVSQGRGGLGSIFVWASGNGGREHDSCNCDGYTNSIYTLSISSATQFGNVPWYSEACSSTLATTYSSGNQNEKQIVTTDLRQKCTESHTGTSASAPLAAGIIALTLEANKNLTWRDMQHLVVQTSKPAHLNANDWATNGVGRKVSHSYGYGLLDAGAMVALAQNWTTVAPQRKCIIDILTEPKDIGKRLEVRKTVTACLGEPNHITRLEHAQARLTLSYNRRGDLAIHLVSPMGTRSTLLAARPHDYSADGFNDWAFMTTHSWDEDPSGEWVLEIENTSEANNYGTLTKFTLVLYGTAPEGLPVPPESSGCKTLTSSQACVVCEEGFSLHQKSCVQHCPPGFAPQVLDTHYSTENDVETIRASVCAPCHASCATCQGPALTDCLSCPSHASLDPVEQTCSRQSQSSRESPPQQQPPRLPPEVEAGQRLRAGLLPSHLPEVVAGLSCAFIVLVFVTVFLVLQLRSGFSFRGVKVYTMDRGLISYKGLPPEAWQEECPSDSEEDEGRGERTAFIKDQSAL
Molecule,Ki (Furin) [nM],other results
H-TPRARRRKKRF-NH2,,Activity (U-251 [1]): Active
H-TPRARRRKKRW-OH,,Activity (U-251 [1]): Active
H-TPRARRRKKRF-OH,38,Activity (U-251 [1]): Active
H-TPRARRRKKRY-OH,,Activity (U-251 [1]): Active
H-TPRARRRKKRI-NH2,30,Ki [2]: 492 nM; Ki [3]: 562 nM; Ki [4]: 267 nM; Ki [5]: 135 nM
H-TPRARRRKKRW-NH2,59,Activity (U-251 [1]): Active
H-TPQRARRRKKRT-OH,33,Ki [2]: 188 nM; Ki [3]: 515 nM; Ki [4]: 296 nM; Ki [5]: 206 nM
CNC(=O)[C@H](Cc1c[nH]c2ccccc12)NC(=O)[C@@H](CC(=O)NO)CC(C)C,,Activity (U-251 [6]): Active
H-TPRARRRKKRT-OH,23,Activity (U-251 [1]): Active
H-TPRARRRKKRY-NH2,53,Activity (U-251 [1]): Active
H-TPQRARRRKKRY-OH,47,Ki [2]: 649 nM; Ki [3]: 624 nM; Ki [4]: 1020 nM; Ki [5]: 1220 nM
CCCC[C@H](NC(=O)[C@H](CCCN=C(N)N)NC(=O)[C@H](CCCCN)NC(=O)[C@H](CCCCN)NC(=O)[C@H](CCCN=C(N)N)NC(=O)[C@H](CCCN=C(N)N)NC(=O)[C@H](CCCN=C(N)N)NC(=O)[C@H](C)NC(=O)[C@H](CCCN=C(N)N)NC(=O)[C@H](CCC(N)=O)NC(=O)[C@@H]1CCCN1C(=O)[C@@H](N)[C@@H](C)O)C(=O)O (H-TPQRARRRKKR[Nle]-OH),> 100,
H-TPRHRRRKKRG-NH2,> 100,
C[C@H](NC(=O)[C@H](CCCN=C(N)N)NC(=O)[C@H](CCC(N)=O)NC(=O)[C@@H]1CCCN1C(=O)[C@@H](N)[C@@H](C)O)C(=O)N[C@@H](CCCN=C(N)N)C(=O)N[C@@H](CCCN=C(N)N)C(=O)N[C@@H](CCCN=C(N)N)C(=O)N[C@@H](CCCCN)C(=O)N[C@@H](CCCCN)C(=O)N[C@@H](CCCN=C(N)N)C(=O)NCCC(=O)O (H-TPQRARRRKKR[βAla]-OH),> 100,
C[C@@H](O)[C@H](N)C(=O)N1CCC[C@H]1C(=O)N[C@@H](CCCN=C(N)N)C(=O)N[C@@H](CCC(=O)O)C(=O)N[C@@H](CCCN=C(N)N)C(=O)N[C@@H](CCCN=C(N)N)C(=O)N[C@@H](CCCN=C(N)N)C(=O)N[C@@H](CCCCN)C(=O)N[C@@H](CCCCN)C(=O)N[C@@H](CCCNC(=N)N)C(=O)NCC(N)=O,> 100,
H-TPQRARRRKKRA-OH,115,
H-TPRGRRRKKRG-OH,> 100,
H-TPQRARRRKKRD-OH,50,
H-TPRARRRKKRP-NH2,> 100,
H-AAAERRRKKR-OH,> 100,

Molecule,Ki (Furin) [nM],other results
C[C@H](NC(=O)[C@H](CCCNC(=N)N)NC(=O)[C@H](CCC(N)=O)NC(=O)[C@@H]1CCCN1C(=O)[C@@H](N)[C@@H](C)O)C(=O)N[C@@H](CCCNC(=N)N)C(=O)N[C@@H](CCCNC(=N)N)C(=O)N[C@@H](CCCNC(=N)N)C(=O)N[C@@H](CCCCN)C(=O)N[C@@H](CCCCN)C(=O)N[C@@H](CCCNC(=N)N)C(=O)NC1(C(=O)O)CCCC1 (H-TPQRARRRKKR[Ac5c]-OH),> 100,
H-TPRERARKKRG-NH2,> 100,
C[C@H](NC(=O)[C@H](CCCCN)NC(=O)[C@H](CCCNC(=N)N)NC(=O)[C@H](CCCNC(=N)N)NC(=O)[C@H](CCCNC(=N)N)NC(=O)[C@H](CCC(=O)O)NC(=O)[C@H](CCCNC(=N)N)NC(=O)[C@@H]1CCCN1C(=O)[C@@H](N)[C@@H](C)O)C(=O)N[C@@H](CCCNC(=N)N)C(=O)N(C)CC(=O)O (H-TPRERRRKAR[Sar]-OH),> 100,
H-TPRCRRRKKRG-NH2,> 100,
H-TPRERRAKKR-OH,> 100,
H-TPQRARRRKKRF-OH,38,Ki [2]: 806 nM; Ki [3]: 772 nM; Ki [4]: 602 nM; Ki [5]: 1130 nM
H-TPRLRRRKKRG-NH2,> 100,
H-AARERRRKKRG-OH,> 100,
C[C@H](NC(=O)[C@H](C)NC(=O)[C@H](CCCN=C(N)N)NC(=O)[C@H](CCCN=C(N)N)NC(=O)[C@H](CCCN=C(N)N)NC(=O)[C@H](CCC(=O)O)NC(=O)[C@H](CCCN=C(N)N)NC(=O)[C@@H]1CCCN1C(=O)[C@@H](N)[C@@H](C)O)C(=O)N[C@@H](CCCN=C(N)N)C(=O)N(C)CC(=O)O,> 100,
H-TPQRARRRKKRW-OH,34,Ki [2]: 433 nM; Ki [3]: 952 nM; Ki [4]: 192 nM; Ki [5]: 172 nM
H-GGGTPRARRRKKRY-OH,42,
CSCC[C@H](NC(=O)[C@H](CCCN=C(N)N)NC(=O)[C@H](CCCCN)NC(=O)[C@H](CCCCN)NC(=O)[C@H](CCCN=C(N)N)NC(=O)[C@H](CCCN=C(N)N)NC(=O)[C@H](CCCN=C(N)N)NC(=O)[C@H](C)NC(=O)[C@H](CCCN=C(N)N)NC(=O)[C@@H]1CCCN1C(=O)[C@@H](N)[C@@H](C)O)C(N)=O,> 100,
C[C@H](NC(=O)[C@H](CCCNC(=N)N)NC(=O)[C@H](CCC(N)=O)NC(=O)[C@@H]1CCCN1C(=O)[C@@H](N)[C@@H](C)O)C(=O)N[C@@H](CCCNC(=N)N)C(=O)N[C@@H](CCCNC(=N)N)C(=O)N[C@@H](CCCNC(=N)N)C(=O)N[C@@H](CCCCN)C(=O)N[C@@H](CCCCN)C(=O)N[C@H](CCCCN)C(=O)NCC(=O)O,> 100,
H-TPRIRRRKKRG-NH2,> 100,
H-TPRERRAAKRG-OH,> 100,
CSC[C@H](NC(=O)[C@H](CCCNC(=N)N)NC(=O)[C@H](CCCCN)NC(=O)[C@H](CCCCN)NC(=O)[C@H](CCCNC(=N)N)NC(=O)[C@H](CCCNC(=N)N)NC(=O)[C@H](CCCNC(=N)N)NC(=O)[C@H](C)NC(=O)[C@H](CCCNC(=N)N)NC(=O)[C@H](CCC(N)=O)NC(=O)[C@@H]1CCCN1C(=O)[C@@H](N)[C@@H](C)O)C(=O)O (H-TPQRARRRKKRC(Me)-OH),93,
H-TPRARRRKKRS-OH,> 100,
H-TPRERRRKKRV-OH,> 100,
C[C@@H](O)[C@H](N)C(=O)N1CCC[C@H]1C(=O)N[C@@H](CCC(N)=O)C(=O)N[C@@H](CCCNC(=N)N)C(=O)NCCCCCC(=O)N[C@@H](CCCNC(=N)N)C(=O)N[C@@H](CCCNC(=N)N)C(=O)N[C@@H](CCCNC(=N)N)C(=O)N[C@@H](CCCCN)C(=O)N[C@@H](CCCCN)C(=O)N[C@@H](CCCNC(=N)N)C(=O)NCC(=O)O,> 100,
H-TPRERRRKARV-OH,> 100,
